Records with an inconclusive call do not appear. Active and inactive are the calls of the source.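 Rule for the calls: active = fitted curve crosses 35% inhibition of luciferase signal below 10 µM, corrected for cell viability; inconclusive = no clear call, values can overlap the other calls; inactive = activity opposite to the expected decrease, otherwise the rest.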

The subject of one assay is A673 NR0B1-luciferase reporter, viability-normalised luminescence. Nature of the assay: inhibitors of EWS/FLI-driven NR0B1 reporter expression, dose response, luciferase luminescence, A673 cells, dry powder (AID 743479).
Conditions: not given
As to `C[C@@]1(C(=O)Nc2ccc(F)nc2)CCCN1c1nc(Nc2cc(C3CC3)[nH]n2)c2cccn2n1`, the AC35 is 2.9 µM.
On the same count and under the same terms, the result for `Cc1ccc(C2C(C#N)=C(N)Oc3cc(N)ccc32)cc1` (stereo not given) reads 54.6 µM; that for `COc1ccc(C2=Nn3c(nnc3-c3ccccc3F)SC2)cc1OC`, 11.5 µM; that for `N#CC1=C(N)Oc2cc(O)ccc2C1c1cccc(Br)c1` (stereo not given), 2.2 µM.
Still for that read-out and setting: to `CN1CCN(CCOc2cc(OC3CCOCC3)c3c(Nc4c(Cl)ccc5c4OCO5)ncnc3c2)CC1` belongs 17.3 µM; to `COc1ccc(S(=O)(=O)N2CC[C@@H]3[C@@H](CO)Nc4ccc(-c5cccc(C#N)c5)cc4[C@@H]32)cc1`, 4.71 µM; to `N#CC1=C(N)Oc2cc(N)ccc2C1c1cccc(F)c1` (stereo not given), 1.2 µM.
Take `CCC(C)C(=O)OC1CC(C)C=C2C=CC(C)C(CCC(O)CC(O)CC(=O)O)C21` (stereo not given): the AC35 was 55.5 µM.
In the case of `COc1ccccc1S(=O)(=O)N1CC[C@@H]2[C@@H](CO)Nc3ccc(-c4ccc(C#N)cc4)cc3[C@@H]21`, the AC35 is 15.5 µM.
For the compound `Cn1cc(-c2ccncc2)c(-c2ccc(OCc3ccc4ccccc4n3)cc2)n1`, the AC35 was 51.7 µM.
Same read-out and setting: to `COc1ccccc1C1C(C#N)=C(N)Oc2cc(N)ccc21` (stereo not given) belongs 53.1 µM; to `CCC(C)(C)C(=O)O[C@H]1C[C@@H](C)C=C2C=C[C@H](C)[C@H](CC[C@@H]3C[C@@H](O)CC(=O)O3)[C@H]21`, 55 µM; to `CC(C)N1c2ccccc2C(c2ccc(F)cc2)C1/C=C/C(O)CC(O)CC(=O)O` (stereo not given), 7.59 µM.
Take `CC[C@@]1(O)C(=O)OCc2c1cc1n(c2=O)Cc2cc3c(CN(C)C)c(O)ccc3nc2-1`: the AC35 is 0.112 µM.
On the same count and under the same terms, the result for `COc1ccc(C2=Nn3c(nnc3-c3ccccc3)SC2)cc1OC` reads 42.7 µM.
On the same count and under the same terms, the result for `COc1cccc(S(=O)(=O)N2CC[C@@H]3[C@@H](CO)Nc4ccc(-c5ccc(C#N)cc5)cc4[C@@H]32)c1` reads 28.5 µM; that for `COc1cc([C@@H]2c3cc4c(cc3[C@@H](O[C@@H]3O[C@@H]5CO[C@@H](C)O[C@H]5[C@H](O)[C@H]3O)[C@H]3COC(=O)[C@H]23)OCO4)cc(OC)c1O`, 3.01 µM.
The same measure, in the same setting: the result for `COc1ccccc1-c1nnc2n1N=C(c1ccc(O)c(O)c1)CS2` reads 3.93 µM.
With `Cc1nc(Nc2ncc(C(=O)Nc3c(C)cccc3Cl)s2)cc(N2CCN(CCO)CC2)n1`, the AC35 was 18.9 µM.
Same read-out and setting: to `COc1ccc(OC)c(-c2nnc3n2N=C(c2ccc(OC)c(OC)c2)CS3)c1` belongs 0.0319 µM; to `COc1ccc(-c2cc(NC=O)c3ncc(-c4ccc(OC)c(OC)c4)n3c2)cc1`, 0.778 µM; to `N#CC1=C(N)Oc2cc(N)ccc2C1c1ccc(Cl)cc1` (stereo not given), 43 µM.
On the same count and under the same terms, the result for `CN1c2ccc(-c3ccc(C#N)cc3)cc2[C@H]2[C@H](CCN2S(=O)(=O)c2ccc(F)cc2)[C@H]1CO` reads 33.6 µM; that for `N#CC1=C(N)Oc2cc(N)ccc2C1c1ccccc1` (stereo not given), 16.6 µM.
Still for that read-out and setting: the result for `Nc1ccn([C@@H]2O[C@H](CO)[C@H](O)C2O)c(=O)n1` (stereo not given in full) reads 1.26 µM; that for `N#CC1=C(N)Oc2cc(N)ccc2C1c1ccc2ccccc2c1` (stereo not given), 19.4 µM; that for `COc1ccc(CNc2nc(N3CCC[C@H]3CO)ncc2C(=O)NCc2ncccn2)cc1Cl`, 45.2 µM.
Regarding `COc1cc(C2C(C#N)=C(N)Oc3cc(N(C)C)ccc32)cc2c1OCO2` (stereo not given), the AC35 was 0.186 µM.
As to `N#Cc1ccc(-c2ccc3c(c2)[C@H]2[C@H](CCN2S(=O)(=O)c2ccccc2F)[C@@H](CO)N3)cc1`, the AC35 is 7.82 µM.
In the case of `N#Cc1ccc(-c2ccc3c(c2)[C@H]2[C@H](CCN2S(=O)(=O)c2cccc(F)c2)[C@@H](CO)N3)cc1`, the AC35 is 4.95 µM.
The same measure, in the same setting: to `COc1cccc(C2C(C#N)=C(N)Oc3cc(N)ccc32)c1` (stereo not given) belongs 0.629 µM; to `COc1ccc(NC(=O)Nc2ccc3c(c2)C(=O)N([C@@H](C)CO)C[C@H](C)[C@H](CN(C)Cc2ccc4c(c2)OCO4)O3)cc1`, 18.8 µM; to `COc1ccc(S(=O)(=O)N2CC[C@@H]3[C@H](CO)Nc4ccc(-c5ccc(C#N)cc5)cc4[C@@H]32)cc1`, 8.44 µM.
As to `CN(C(=O)CCCOc1ccc2[nH]c(=O)ccc2c1)C1CCCCC1`, the AC35 is 49.6 µM.
In the case of `Clc1ccccc1-c1nnc2n1N=C(c1ccc3c(c1)OCO3)CS2`, the AC35 is 0.75 µM.
For the compound `COc1ccc(C2C(C#N)=C(N)Oc3cc(N)ccc32)cc1` (stereo not given), the AC35 is 53.2 µM.
The same measure, in the same setting: the result for `COc1ccc(-c2ccc3c(c2)[C@H]2[C@H](CCN2S(=O)(=O)c2ccc(OC)cc2)[C@@H](CO)N3)cc1` reads 3.57 µM; that for `Cc1cccc(C2C(C#N)=C(N)Oc3cc(N)ccc32)c1` (stereo not given), 0.705 µM; that for `CC1(C)CC(c2nc(-c3ccc4ccc(-c5ccccc5)nc4c3)c3c(N)nccn23)C1`, 37.9 µM.
Consider `Cc1ccc(S(=O)(=O)N2CC[C@@H]3[C@@H](CO)Nc4ccc(-c5ccc(C#N)cc5)cc4[C@@H]32)cc1`, for which the AC35 was 17.2 µM.
On the same count and under the same terms, to `COC(=O)c1ccc(C2C(C#N)=C(N)Oc3cc(N)ccc32)cc1` (stereo not given) belongs 40.2 µM; to `N#CC1=C(N)Oc2cc(N)ccc2C1c1cccc(Br)c1` (stereo not given), 0.223 µM; to `O=C(Nc1c(Cl)cncc1Cl)c1ccc(OC(F)F)c(OCC2CC2)c1`, 56.9 µM.
The same measure, in the same setting: to `O=C(c1cc(Cc2n[nH]c(=O)c3ccccc23)ccc1F)N1CCN(C(=O)C2CC2)CC1` belongs 238 µM.
The same measure, in the same setting: the result for `CCc1c2c(nc3ccc(O)cc13)-c1cc3c(c(=O)n1C2)COC(=O)C3(O)CC` (stereo not given) reads 0.00781 µM; that for `COc1ccc(S(=O)(=O)N2CC[C@@H]3[C@@H](CO)N(C)c4ccc(-c5ccc(F)cc5)cc4[C@@H]32)cc1`, 2.85 µM; that for `COc1ccccc1-c1nnc2n1N=C(c1ccc3c(c1)OCO3)CS2`, 0.0242 µM.
For `COc1ccc(S(=O)(=O)N2CC[C@@H]3[C@@H](CO)Nc4ccc(-c5ccc(C#N)cc5)cc4[C@@H]32)cc1`, the AC35 is 3.37 µM.
Same read-out and setting: the result for `COc1ccc(S(=O)(=O)N(C(C)=O)c2ccc(OC(C)=O)c3ccccc23)cc1[N+](=O)[O-]` reads 2.81 µM.
The same measure, in the same setting: the result for `COc1ccc(C(=O)CC2(O)C(=O)Nc3c(Cl)ccc(Cl)c32)cc1` (stereo not given) reads 3.21 µM; that for `COc1ccc(C2=Nn3c(nnc3-c3ccccc3OC)SC2)cc1OC`, 0.131 µM; that for `Cc1ccc([N+](=O)[O-])cc1S(=O)(=O)N(C)C`, 59.7 µM.
On the same count and under the same terms, the result for `COc1cccc2c1C(=O)c1c(O)c3c(c(O)c1C2=O)C[C@@](O)(C(=O)CO)C[C@@H]3O[C@H]1C[C@H](N)[C@H](O)[C@H](C)O1` reads 15.1 µM; that for `COc1ccc(C2=Nn3c(nnc3-c3ccccc3Cl)SC2)cc1OC`, 0.69 µM.
Take `N#CC1=C(N)Oc2cc(OC(=O)c3ccccc3)ccc2C1c1cccc(Br)c1` (stereo not given): the AC35 was 3.55 µM.
Still for that read-out and setting: to `COc1ccc(-c2ccc3c(c2)[C@H]2[C@H](CCN2S(=O)(=O)c2ccc(OC)cc2)[C@@H](CO)N3C)cc1` belongs 4.43 µM; to `N#CC1=C(N)Oc2cc(N)ccc2C1c1ccccc1Cl` (stereo not given), 26.6 µM; to `N#CC1=C(N)Oc2cc3c(cc2C1c1cccc(Br)c1)OCO3` (stereo not given), 0.0564 µM.
On the same count and under the same terms, the result for `Cc1cc(Nc2cc(N3CCN(C)CC3)nc(Sc3ccc(NC(=O)C4CC4)cc3)n2)n[nH]1` reads 39.5 µM.
On the same count and under the same terms, the result for `CCOC(=O)CCNc1cc(N2CCc3ccccc3CC2)nc(-c2ccccn2)n1` reads 32.8 µM; that for `N#CC1=C(N)Oc2cc(N)ccc2C12C(=O)Nc1ccc(Br)cc12` (stereo not given), 43.3 µM; that for `Nc1ncnc2c1c(-c1cccc(OCc3ccccc3)c1)cn2C1CC(CN2CCCC2)C1` (stereo not given), 17.3 µM.
For `CN(C)c1ccc2c(c1)OC(N)=C(C#N)C2c1cccc(F)c1` (stereo not given), the AC35 was 0.0309 µM.
On the same count and under the same terms, to `CN1c2ccc(-c3ccc(C#N)cc3)cc2[C@H]2[C@H](CCN2S(=O)(=O)c2cccc(F)c2)[C@H]1CO` belongs 2.35 µM.
Same read-out and setting: to `Cc1ccccc1C1C(C#N)=C(N)Oc2cc(N)ccc21` (stereo not given) belongs 40.9 µM.
For `N#CC1=C(N)Oc2ccc3ccccc3c2C1c1cccc(F)c1` (stereo not given), the AC35 was 0.968 µM.

Tested on in another assay: not listed separately
The assay is described as above. Particulars: A673 NR0B1-luciferase reporter, viability-normalised luminescence; at 4.2 µM (top of the series). (A reporter such as luciferase makes a cellular process visible.)
In the case of `CCN(CCO)CCCOc1ccc2c(Nc3cc(CC(=O)Nc4cccc(F)c4)[nH]n3)ncnc2c1`, the activity change, negative = inhibition is 0.506% (inactive).

Staying with this assay, now noted: A673 NR0B1-luciferase reporter, viability-normalised luminescence; at 6.8 µM (top of the series).
`C=C([C@@H](O)[C@@H](C)O)[C@@H](OC)[C@]1(C)Cc2cc3cc(O[C@H]4CC(OC5CC(O)C(O)C(C)O5)C(O)C(C)O4)cc(O)c3c(O)c2C(=O)[C@H]1OC1CC(OC2CC(OC3CC(C)(O)C(O)C(C)O3)C(O)C(C)O2)C(O)C(C)O1` (stereo not given in full): the activity change, negative = inhibition is 12.4% (inactive).

The assay is the same for the next values; noted with them: A673 NR0B1-luciferase reporter, viability-normalised luminescence; at 16 µM (top of the series).
For `Clc1ccc(-c2cnc3ccc(-c4ccccc4)cn23)cc1`, the activity change, negative = inhibition was 38.6% (inactive).

Staying with this assay, now noted: A673 NR0B1-luciferase reporter, viability-normalised luminescence; at 68 µM (top of the series).
For the compound `COc1ccc(C2CNC(=O)C2)cc1OC1CCCC1` (stereo not given), the activity change, negative = inhibition was -4.33% (inactive).
Still for that read-out and setting: the result for `CCCCc1ccc2nc(NC(=O)OC)[nH]c2c1` reads -8.52% (inactive); that for `COc1ccc(-c2cc(NC(C)=O)c3ncc(-c4ccc(OC)c(OC)c4)n3c2)cc1`, -21.4% (inactive); that for `COc1cc(Nc2ncc3c(n2)-c2ccc(Cl)cc2C(c2c(F)cccc2OC)=NC3)ccc1C(=O)O`, 114% (inactive).
On the same count and under the same terms, to `C[C@]1(c2nc3c(C(N)=O)cccc3[nH]2)CCCN1` belongs -14.9% (inactive).

The assay is the same for the next values; noted with them: A673 NR0B1-luciferase reporter, viability-normalised luminescence; at 135 µM (top of the series).
For the compound `O=P1(NCCCl)OCCCN1CCCl` (stereo not given), the activity change, negative = inhibition is 11.8% (inactive).
